Results: article PMC10600239, “Selective MCL-1 inhibitor ABBV-467 is efficacious in tumor models but is associated with cardiac troponin increases in patients” (Communications Medicine, 2023)
Values joined by “and” are separate entries in the source; they are usually repeats but may differ in a detail not shown here. Identical values can stand only once. Like-named read-outs stand apart in the source and are kept apart here.

Legend:
[1] = 4-week (5-dose) IV infusion toxicity study with 4-week recovery; settings: rats
Method: range-finding studies, and 4-we ek (5-dose) with recovery GLP studies in rats and dogs. For all studies, test item was
administered once weekly by 30 -minute IV infusion. Standard GLP endpoints were assessed including in- life (body weights,
clinical observations, eye exams), electro cardiograms (dog s only), clinical pathology (hematology, clinical chemistry, and
coagulation) and anatomic pathology (macroscopic and mic roscopic observations and organ weights).
Study design was generally in compliance with FDA Redbook
Guidance IV.C. 3.a. and IV.C.3. b. sections on short-term toxicity studies with rodents and non- rodents, respectively (viz.
Studies were appr oved by the animal use committee of Charles River Laboratories, Mattawan, MI. No animals or
data were excluded from analysis. Healthy dogs, as determined by veterinary physical examination and clinical pathology,
were randomized between dose groups using laboratory information management softw are.

AMO-1 cells = test: In vitro cell viability assay (CellTiter-Glo); format: cell-based, human; set-up: Cell viability after compound washout (CellTiter-Glo): scale not given here; settings: for Cell viability after compound washout (CellTiter-Glo): AMO-1, replicates
Method: All cell lines were grown and treated in RPMI 1640 or Dulbecco’s modified Eagle medium (Sigma, St. Louis, MO) supplemented with 10% fetal bovine serum (Gibco) or 10% human serum (Sigma) and maintained in a humidified incubator at 5% CO2 and 37 °C. DLD-1, MV4-11, NCI-H929 (all ATCC, Manassas, VA, USA) and AMO-1 (DSMZ, Braunschweig, Germany) cells were plated 4000 cells per well in 384-well tissue culture plates and treated with compounds of interest for 24 h at 37 °C, 5% CO2 humidified incubator. Each concentration was tested in duplicate at least 3 separate times. Adherent cells were allowed to adhere overnight prior to treatment. Alternatively, AMO-1 or NCI-H929 cells were treated with ABBV-467 for the indicated contact times (1–24 h) at 37 °C in a 5% CO2 humidified incubator and washed 3 times with compound-free media prior to incubation for the remainder of a 24-h treatment period. Cell viability was subsequently determined using CellTiter-Glo (Promega, Madison, WI, USA) according to the manufacturer’s instructions.
For in vitro viability assays, mean EC50 and EC90 values were determined from the resulting dose-response curves from at least 3 independent experiments, and depict the mean ± standard error of the mean.
Fig. 2 Apoptosis induced by ABBV-467 is mechanism based and induces cell death in MCL-1-dependent cell lines after short target engagement periods. H929 cells were treated with ABBV-467 in the presence or absence of the pan-caspase inhibitor z-VAD-fmk (50 µM) and the impact on caspase-3/7 activation (a), mitochondrial membrane potential (ΔΨm; b), and apoptosis (c) determined. Alternatively, BAK-deficient SKBR3 cells were treated with ABBV-467 for 24 h and the impact on cell viability compared with the parental cell line, determined by CellTiter-Glo. Inset depicts a western blot of BAK and BAX expression in SKBR3 cell variants using GAPDH as a loading control. Each of the 3 proteins were probed on separate blots (d). Data in (a–d) are presented as the mean ± standard error of the mean. H929 and AMO-1 cells were treated with ABBV-467 at the indicated concentrations and the impact on caspase-3/7 activation and viability (DRAQ7-positive) cells determined over time by Incucyte®. Data are presented as the mean ± standard deviation (e). H929 or AMO-1 cells were cultured in media containing 10% human serum and treated with ABBV-467 for the indicated contact times. Cells were subsequently washed 3 times with drug-free media and incubated in drug-free media for the remainder of the 24-h treatment period at 37 °C before cell viability was determined by CellTiter-Glo. Mean EC50 and EC90 values were determined from the resulting dose-response curves from at least 3 independent experiments, each assessed in quadruplicate, and depict the mean ± standard error of the mean. Presented ABBV-467 dose-response curves in H929 and AMO-1 cells were compiled from at least 3 independent experiments (f).

SMILES: Cc1c(Cl)c2c(Cl)c(C)c1-c1c(-c3ccc(F)cc3)sc3ncnc(c13)O[C@@H](C(=O)O)Cc1cc(ccc1OCc1ccnc(-c3ccc(OC[C@H]4COCCO4)cc3)n1)OC[C@@H](CN1CCN(C)CC1)O2 [ABBV-467]
- impact on cardiovascular endpoints (anatomic, clinical pathology, and/or function) ([1]; multidose GLP toxicity study): No direct impact
- reversibility of toxicities ([1]; after a 4-week recovery period): partially or fully reversible
- primary target organs of apoptosis/single-cell necrosis ([1]; once-weekly dosing): pancreas, liver, gastrointestinal tract, and the hematopoietic system
- EC50 (AMO-1 cells; AMO-1, individual determinations, read-out: Individual EC50): 0.224 nM and 0.216 nM and 0.212 nM and 0.145 nM and 0.159 nM and 0.131 nM and 0.106 nM and 0.0956 nM and 0.0874 nM and 0.217 nM and 0.188 nM
- Cell viability after compound washout (CellTiter-Glo) (AMO-1 cells; 2hr + 22hr, Log Conc 1): 0.4281 and 0.471 and 0.3421 and 0.36 and 0.84 and 0.79 and 0.71 and 0.8 and 2.671 and 3.13 and 2.51 and 2.629
- Cell viability after compound washout (CellTiter-Glo) (AMO-1 cells; c49-c56, head empty, Log Conc 0.39794): 0.4
- EC50 (AMO-1 cells; Homo sapiens, AMO1, 10% human serum, contact time 1 hr, washout, viability at 24 h, read-out: AMO-1 Mean EC50): 31.9 nM
- EC90 (AMO-1 cells; Homo sapiens, AMO1, 10% human serum, contact time 2 hr, washout, viability at 24 h): 174000 pM
- EC50 (AMO-1 cells; Homo sapiens, AMO1, 10% human serum, contact time 2 hr, washout, viability at 24 h, read-out: AMO-1 Mean EC50): 27.1 nM
- EC90 (AMO-1 cells; Homo sapiens, AMO1, 10% human serum, contact time 4 hr, washout, viability at 24 h): 141000 pM
- EC50 (AMO-1 cells; Homo sapiens, AMO1, 10% human serum, contact time 4 hr, washout, viability at 24 h, read-out: AMO-1 Mean EC50): 17.4 nM
- EC90 (AMO-1 cells; Homo sapiens, AMO1, 10% human serum, contact time 6 hr, washout, viability at 24 h): 114000 pM
- EC50 (AMO-1 cells; Homo sapiens, AMO1, 10% human serum, contact time 6 hr, washout, viability at 24 h, read-out: AMO-1 Mean EC50): 9.4 nM
- EC90 (AMO-1 cells; Homo sapiens, AMO1, 24 h, 10% human serum, contact time 24 hr): 6700 pM
- EC50 (AMO-1 cells; Homo sapiens, AMO1, 24 h, 10% human serum, contact time 24 hr, read-out: AMO-1 Mean EC50): 0.7 nM
- EC50 (AMO-1 cells; Homo sapiens, AMO1, 24 h, read-out: AMO-1 EC50 (nM, 10% FBS), 10% FBS, 24 h continuous treatment): 0.1 nM
- EC50 (AMO-1 cells; Homo sapiens, AMO1, AMO-1, arithmetic mean, read-out: Arithmetic Mean EC50 nM): 0.15 nM
- EC50 (AMO-1 cells; Homo sapiens, AMO1, AMO-1, arithmetic mean, read-out: Arithmetic Mean EC50 µM): 0.155 nM
- EC50 (AMO-1 cells; Homo sapiens, AMO1, read-out: Individual EC50 µM, AMO-1, individual determinations): 0.112 nM
- EC50 (AMO-1 cells; read-out: AMO-1 EC50 (nM, 10% FBS), 10% FBS, 24 h continuous treatment): 0.16 nM
- EC50 (AMO-1 cells; read-out: Individual EC50 µM, AMO-1, individual determinations): 0.122 nM
